# From patent US6410250B1 (priority 1996, dated 2002)
# Entries after “also recorded” stand apart in the source; their conditions may differ.
# B1: ovalbumin (protein, UniProt P01012 2-386, looked up)
# Ovalbumin: GSIGAASMEFCFDVFKELKVHHANENIFYCPIAIMSALAMVYLGAKDSTRTQINKVVRFDKLPGFGDSIEAQCGTSVNVHSSLRDILNQITKPNDVYSFSLASRLYAEERYPILPEYLQCVKELYRGGLEPINFQTAADQARELINSWVESQTNGIIRNVLQPSSVDSQTAMVLVNAIVFKGLWEKAFKDEDTQAMPFRVTEQESKPVQMMYQIGLFRVASMASEKMKILELPFASGTMSMLVLLPDEVSGLEQLESIINFEKLTEWTSSNVMEERKIKVYLPRMKMEEKYNLTSVLMAMGITDVFSSSANLSGISSAESLKISQAVHAAHAEINEAGREVVGSAEAGVDAASVSEEFRADHPFLFCIKHIATNAVLFFGRCVSP
# notes: antigen preparation used as specificity control in lymph node proliferation assay
# Columns and labels:
# L. major = assay: Growth of L. major promastigotes in liquid medium with drug; type: cell-based, Leishmania major
# [1] = system: Starch-elicited peritoneal macrophages; assay: Infection of starch-elicited peritoneal macrophages in vitro; type: cell-based, mouse; conditions: thymidine 100 μg/ml added to the medium
# [2] = In vivo rescue of dhfr-ts- phenotype with thymidine osmotic pumps; parameters: species or system mice; conditions: continuous thymidine supplementation
# [3] = system: draining lymph node cells; type: cell-based, mouse
molecule,measurement,setting,value
"CN(Cc1cnc2nc(N)nc(N)c2n1)c1ccc(C(=O)N[C@@H](CCC(=O)O)C(=O)O)cc1 [MTX, methotrexate]",EC50,"L. major; Leishmania major, wild-type or heterozygous (+/HYG) cells, liquid media, read-out: concentration of MTX required to inhibit cell growth by 50% (EC50)",~1 µM
same,growth in presence of MTX,"L. major; dhfr-ts^− NEO/HYG knockout, 100 μM MTX, liquid media",grew well
CN[C@H]1C[C@@H](N)[C@H](O)[C@@H](O[C@@H]2O[C@H](CO)[C@H](O)[C@@H]3OC4(O[C@H]23)O[C@H]([C@@H](N)CO)[C@H](O)[C@H](O)[C@H]4O)[C@@H]1O (stereo partly shown) [hygromycin B],hygromycin B concentration resulting in a 50% reduction in growth,L. major; +/HYG line,200 μg per ml
Cc1cn([C@H]2C[C@H](O)[C@@H](CO)O2)c(=O)[nH]c1=O [thymidine],effect of thymidine on dhfr-ts^− in macrophages,[1],restored both survival and replication
same,restoration of animal infectivity of dhfr-ts^− by thymidine supplementation,[2],partially restored; also recorded: partially restore infectivity
bacillus Calmette-Guerin,proliferation as [3H]thymidine incorporation,[3],1100±1000 cpm
B1,proliferation as [3H]thymidine incorporation,[3],2600±1100 cpm
